Residue numbers refer to the chain shown, from its start.
Key:
Assay type in all cases: binding
[1] = biological target: T1, DNA polymerase α catalytic subunit (POLA1) (Homo sapiens, UniProt P09884); assay: CD437 fluorescence intensity enhancement and anisotropy titration
T1 sequence (P09884 335-1257): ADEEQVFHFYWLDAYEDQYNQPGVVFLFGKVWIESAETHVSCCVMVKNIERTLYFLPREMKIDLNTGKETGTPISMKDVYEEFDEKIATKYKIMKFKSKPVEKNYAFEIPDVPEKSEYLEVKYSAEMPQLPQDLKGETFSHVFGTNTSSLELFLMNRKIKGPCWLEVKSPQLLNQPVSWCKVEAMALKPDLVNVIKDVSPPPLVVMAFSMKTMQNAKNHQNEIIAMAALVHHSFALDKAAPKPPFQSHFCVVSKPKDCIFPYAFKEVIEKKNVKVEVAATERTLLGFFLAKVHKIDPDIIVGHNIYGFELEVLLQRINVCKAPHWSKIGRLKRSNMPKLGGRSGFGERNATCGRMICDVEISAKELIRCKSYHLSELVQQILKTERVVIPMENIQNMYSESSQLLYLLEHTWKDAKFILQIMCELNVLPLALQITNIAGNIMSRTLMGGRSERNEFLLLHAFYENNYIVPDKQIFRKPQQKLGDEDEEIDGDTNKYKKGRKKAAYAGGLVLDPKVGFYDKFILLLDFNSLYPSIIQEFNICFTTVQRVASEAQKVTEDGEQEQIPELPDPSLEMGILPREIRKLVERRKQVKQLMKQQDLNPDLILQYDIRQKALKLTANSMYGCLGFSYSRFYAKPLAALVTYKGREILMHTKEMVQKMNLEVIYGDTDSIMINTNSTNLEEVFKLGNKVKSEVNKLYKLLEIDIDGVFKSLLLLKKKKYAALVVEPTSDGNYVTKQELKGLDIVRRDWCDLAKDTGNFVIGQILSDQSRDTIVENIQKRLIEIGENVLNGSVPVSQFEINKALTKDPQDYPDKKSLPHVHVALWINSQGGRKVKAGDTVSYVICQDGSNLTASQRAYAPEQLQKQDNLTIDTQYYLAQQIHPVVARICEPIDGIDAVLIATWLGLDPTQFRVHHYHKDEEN

[2] = biological target: T2, DNA polymerase α catalytic subunit (POLA1) (Homo sapiens, UniProt P09884, L764S); assay: CD437 fluorescence intensity enhancement titration
T2 sequence (P09884 335-1257 L764S): T1 sequence (P09884 335-1257) with L430S

[3] = biological target: T3, DNA polymerase α catalytic subunit (POLA1) (Homo sapiens, UniProt P09884, L700S); assay: CD437 fluorescence intensity enhancement titration
T3 sequence (P09884 335-1257 L700S): T1 sequence (P09884 335-1257) with L366S

Kd [1]: 67 ± 22 nM
Kd [2]: 94 ± 18 nM
Kd [3]: < 5 nM
SMILES: O=C(O)c1ccc2cc(-c3ccc(O)c(C45CC6CC(CC(C6)C4)C5)c3)ccc2c1 [CD437, 6-[3-(1-adamantyl)-4-hydroxyphenyl]-2-naphthalene carboxylic acid]
